Test: Photostability of formulations on PMMA sheets exposed in a Heraeus Suntest
Type: physicochemical
Details: formulations 9 and 10 versus control formulation 8
Procedure: Method for Measuring the Photostability:
For each formulation, constituents given in % by weight, 3 test samples and 3 control samples were prepared. 2 mg/cm^2 of formulation are deposited on poly(methyl methacrylate) sheets using a spatula.
The test sheets are exposed for 38 min to a Heraeus Suntest equipped with a xenon lamp having a UV-A flux of 9.51×10^−3 W/cm^2 and a UV-B flux of 5.43×10^−4 W/cm^2. The control sheets are stored for the same time and at the same temperature (38-40° C.) in darkness.
At the end of this time, the screening agents are extracted by immersing each sheet in 50 g of methanol and by subjecting them to ultrasound for 15 min in order to provide for good extraction. The solutions obtained are analyzed by HPLC and UV spectrophotometry.
For each formulation tested, the residual 4-(tert-butyl)-4′-methoxydibenzoylmethane level after exposure is given in the ratio of its optical density (OD) in the exposed sample to its unexposed optical density (OD). The positions adopted are the absorption maxima corresponding to butyl-methoxy-dibenzoylmethane: λmax=358 nm.

SMILES: CCCCOC(=O)c1ccc(Nc2nc(Nc3ccc(C=C(C(=O)OCC(C)(C)C)C(=O)OCC(C)(C)C)cc3)nc(Nc3ccc(C=C(C(=O)OCC(C)(C)C)C(=O)OCC(C)(C)C)cc3)n2)cc1 [Example 1, 2,4-bis(dineopentyl 4′-aminobenzalmalonate)-6-(butyl 4″-aminobenzoate)-s-triazine]
- Photostability of the dibenzoylmethane in the presence of the compound (result in words): improvement in the photostability of the dibenzoylmethane

Reference: US20070196294A1, “Photostable sunscreen compositions comprising dibenzoylmethane compound UV-A filters and s-triazine compounds” (L'OREAL, priority 2006, published 2007)
